# Measured values reported in patent US12521356B2, “Compositions and methods for treating pain, inflammation, infection, malaria, and sepsis” (Duke University, priority 2018, dated 2026).
# What was measured:
# ChemR23 = biological target: T1, ChemR23 (Homo sapiens, UniProt Q99788); assay: Ca2+ imaging (Fura-2AM) in HEK293 cells transfected with ChemR23 cDNA; type: cell-based; conditions: HEK293 cells expressing ChemR23; RvE1 100 nM
# T1 construct: host or cells: HEK293 flip-in cells
# T1 sequence (Q99788 1-373): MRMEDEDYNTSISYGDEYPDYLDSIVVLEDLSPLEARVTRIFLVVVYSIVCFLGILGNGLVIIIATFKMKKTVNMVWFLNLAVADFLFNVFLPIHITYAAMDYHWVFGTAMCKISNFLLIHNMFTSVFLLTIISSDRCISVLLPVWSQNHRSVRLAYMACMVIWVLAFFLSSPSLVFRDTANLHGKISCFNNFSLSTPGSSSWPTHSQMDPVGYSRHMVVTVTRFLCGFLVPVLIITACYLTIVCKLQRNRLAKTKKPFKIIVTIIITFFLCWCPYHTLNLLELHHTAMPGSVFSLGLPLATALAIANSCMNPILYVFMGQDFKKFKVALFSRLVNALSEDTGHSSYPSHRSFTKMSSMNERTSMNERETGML
# Description: (§1) FIG. 10A-FIG. 10C. Characterization of intracellular Ca^2+ changes in HEK293 cells expressing ChemR23, GPR32, and ALX. Ca^2+ imaging with Fura-2AM indicator showing iCa^2+ levels in HEK293 cells transfected with ChemR23 (FIG. 10A), GPR32 (FIG. 10B), and ALX (FIG. 10C) cDNAs. Note that NPD1 fails to elicit iCa^2+ increase in HEK293 cells expressing ChemR23, GPR32, and ALX. […] ATP is included as a positive control. *P<0.05, compared with baseline n=44˜97 cells from 3 cultures. All the data are expressed as mean±s.e.m.
# (§2) HEK cell culture and transfection. HEK293 flip-in cell line was purchased from Duke Cell Culture Facility. Cells were cultured in high glucose (4.5 g/L) Dulbecco's Modified Eagle's Medium containing 10% (v/v) fetal bovine serum (Gibco). Transfection (2 μg cDNA) was performed with Lonza electroporation (Lonza) at 70% confluency and the transfected cells were cultured in the same growth medium for 48 h before use. The hGPR37-V5 pLenti304 plasmids were obtained from DNASU (Tempe, AZ), and hGPR32, hChemR23 and hALX pcDNA3 plasmids were provided by Dr. Serhan from Harvard Medical School, Boston.
# (§3) Calcium imaging. HEK 293 cells, with or without transfection of Gpr37, GPR32, ChemR23 or ALX1 cDNA, were loaded with 5 μM Fura-2AM (Invitrogen) for 1 hour and then were resuspended in normal external buffer (140 NaCl, 5 KCl, 2 CaCl2, 2 MgCl2, 10 HEPES, in mM, titrated to pH 7.4 with NaOH) or external Ca^2+-free buffer (140 NaCl, 2 MgCl2, 5 EGTA, 10 HEPES, in mM, titrated to pH 7.4 with NaOH). Peritoneal macrophages, collected from WT and Gpr37 KO mice, were loaded with 5 μM Fura-4AM (Invitrogen) for 1 hour and then were resuspended in normal external buffer. Images of the HEK 293 cells and macrophages with the excitation wavelength of 340 nm and 380 nm were captured with a cooled Digital CMOS camera (ORCA-Flash 4.0, Hamamatsu Photonics K.K, Japan). The ratio of fluorescence intensity of the two wavelengths in each experiment was analyzed using MetaFluor (Molecular Devices). The Shutter speed and wavelength was controlled by Lambda DG-4 system (Sutter instrument Co., Novato, CA). […]
# GPR32 [1] = biological target: T2, GPR32 (Homo sapiens, UniProt O75388); assay: Ca2+ imaging (Fura-2AM) in HEK293 cells transfected with GPR32 cDNA; type: cell-based; conditions: HEK293 cells expressing GPR32; RvD1 100 nM
# T2 construct: host or cells: HEK293 flip-in cells
# Description: as §1, §2, §3
# GPR37 = assay: Ca2+ imaging (Fluo-4AM) in peritoneal macrophages (pMΦ) from WT and Gpr37−/− mice; type: cell-based, mouse; conditions: 30 nM; Gpr37-deficient pMΦ
# Description: Peritoneal macrophage culture. Peritoneal macrophages were collected by peritoneal lavage with 10 ml warm PBS containing of 1 mM EDTA. Cells were incubated in DMEM supplemented with 10% FBS at 37° C. for 2 h in petri dish and washed with PBS to eliminate non-adherent cells. The adherent cells were used as peritoneal macrophages. Peritoneal macrophages were used after 3 days of culture.
# Calcium imaging. HEK 293 cells, with or without transfection of Gpr37, GPR32, ChemR23 or ALX1 cDNA, were loaded with 5 μM Fura-2AM (Invitrogen) for 1 hour and then were resuspended in normal external buffer (140 NaCl, 5 KCl, 2 CaCl2, 2 MgCl2, 10 HEPES, in mM, titrated to pH 7.4 with NaOH) or external Ca^2+-free buffer (140 NaCl, 2 MgCl2, 5 EGTA, 10 HEPES, in mM, titrated to pH 7.4 with NaOH). Peritoneal macrophages, collected from WT and Gpr37 KO mice, were loaded with 5 μM […] (Invitrogen) for 1 hour and then were resuspended in normal external buffer. Images of the HEK 293 cells and macrophages with the excitation wavelength of 340 nm and 380 nm were captured with a cooled Digital CMOS camera (ORCA-Flash 4.0, Hamamatsu Photonics K.K, Japan). The ratio of fluorescence intensity of the two wavelengths in each experiment was analyzed using MetaFluor (Molecular Devices). The Shutter speed and wavelength was controlled by Lambda DG-4 system (Sutter instrument Co., Novato, CA). Values from each of the experiments were normalized to the baseline ratio of 340/380 nm.
# Next, we conducted GPR37-mediated Ca^2+ imaging in native pMΦ from WT and Gpr37^−/− mice using Fluo-4AM as a Ca^2+ indicator, since this dye works better than Fura-2AM for pMΦ. […] As compared to iCa^2+ increase in GPR37-expressing HEK293 cells, NPD1 trigger a slow-onset but more persistent Ca^2+ response in pMΦ (FIG. 2B and FIG. 2G). A relatively rapid calcium response in HEK293 cells may result from over-expression of GPR37. A sustained iCa^2+ increase in pMΦ may result from the expression of transient receptor potential (TRP) ion channels in these immune cells. It is noteworthy that macrophages express TRPV2 or TRPM2, which are involved in phagocytosis during bacterial infection. […] NPD1-triggered iCa^2+ increase in pMΦ is also Gi-dependent, since PTX blocked this increase (FIG. 2H). For comparison, ATP-evoked iCa^2+ increase was not altered in GPR37-deficient pMΦ (FIG. 2H).
# GPR32 [2] = biological target: T2, GPR32; assay: Dot blot binding assay, positive control GPR32
# Description: (§4) Lipids overlay assay. Lipids membrane coating and protein overlay assay was conducted as previously described (Ji R R, et al. Science 2016, 354, 572-577). Ethanol and chloroform soluble fatty acids were directly loaded on hydrophobic PVDF membrane (Bio-Rad). The fatty acids (NPD1, RvD1, RvE1, and DHA) coated membranes were dried and blocked with 1% BSA. The cell lysate and purified GPR37-V5 protein were incubated with the coating membrane for 2 h, and the binding was detected by anti-V5 tagged antibody (mouse, 1:1000, Thermo scientific, Catalog: 46-0705).
# as §2
# (§5) To determine whether NPD1 and TX14 bind to GPR37, we conducted dot blot assay by coating the blots with different concentrations of NPD1 and TX14 and included RvE1 as a control. […]
# CHEM23 = biological target: T3, CHEM23 (Homo sapiens, UniProt Q99788); assay: Dot blot binding assay, positive control CHEM23
# T3 sequence (Q99788 1-373): T1 sequence (Q99788 1-373)
# Description: as §4, §2, §5
# T2 sequence (O75388 whole entry): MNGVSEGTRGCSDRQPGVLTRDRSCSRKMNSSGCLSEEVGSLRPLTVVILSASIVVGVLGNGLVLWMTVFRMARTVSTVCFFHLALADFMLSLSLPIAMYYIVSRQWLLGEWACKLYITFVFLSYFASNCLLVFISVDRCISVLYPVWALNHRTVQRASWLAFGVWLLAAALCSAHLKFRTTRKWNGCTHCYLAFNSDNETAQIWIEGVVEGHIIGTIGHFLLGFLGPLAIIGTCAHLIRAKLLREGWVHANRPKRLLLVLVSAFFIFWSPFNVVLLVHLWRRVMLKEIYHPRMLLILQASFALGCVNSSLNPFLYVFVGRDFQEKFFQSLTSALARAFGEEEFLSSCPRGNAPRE
Structure (SMILES),iCa2+ increase / Ca2+ response (ChemR23),iCa2+ increase / Ca2+ response (GPR32 [1]),iCa2+ increase (GPR37),binding to GPR32 (GPR32 [2]),binding to CHEM23 (CHEM23)
"CC/C=C\C[C@H](O)\C=C/C=C/C=C/[C@H](O)C/C=C\C/C=C\CCC(=O)O [NPD1, neuroprotectin D1]",failed to elicit iCa^2+ increase,failed to elicit iCa^2+ increase,abolished,–,–
CC/C=C\C[C@H](O)/C=C/C=C\C=C\C=C\[C@@H](O)[C@@H](O)C/C=C\CCC(=O)O [RvD1],–,failed to evoke Ca^2+ responses,–,strong binding,–
CC[C@@H](O)/C=C/C=C\C[C@@H](O)/C=C/C=C/C=C\[C@@H](O)CCCC(=O)O [RvE1],failed to evoke Ca^2+ responses,–,–,–,strong binding
